The values below come from ChEMBL document CHEMBL1143857, “(Phenylpiperazinyl)cyclohexylureas: discovery of alpha1a/1d-selective adrenergic receptor antagonists for the treatment of benign prostatic hyperplasia/lower urinary tract symptoms (BPH/LUTS)” (Bioorg Med Chem Lett, 2008).

Experiment [1] concerns the target T1, Alpha-1A adrenergic receptor (Homo sapiens, UniProt P35348).
T1 sequence (P35348 whole entry): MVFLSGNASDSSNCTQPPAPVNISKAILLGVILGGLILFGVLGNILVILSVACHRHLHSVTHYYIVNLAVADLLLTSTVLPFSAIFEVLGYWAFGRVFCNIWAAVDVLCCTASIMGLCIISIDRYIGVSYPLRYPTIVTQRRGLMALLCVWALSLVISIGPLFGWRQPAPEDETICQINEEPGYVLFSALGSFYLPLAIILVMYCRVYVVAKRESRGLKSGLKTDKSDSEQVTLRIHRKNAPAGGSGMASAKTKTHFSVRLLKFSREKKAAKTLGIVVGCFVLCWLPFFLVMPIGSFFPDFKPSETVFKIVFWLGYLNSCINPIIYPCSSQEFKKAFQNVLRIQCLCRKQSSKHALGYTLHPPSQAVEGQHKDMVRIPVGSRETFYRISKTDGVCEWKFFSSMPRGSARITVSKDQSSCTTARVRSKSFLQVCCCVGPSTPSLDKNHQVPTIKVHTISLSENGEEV
The experiment in a line: Displacement of [125I]HEAT from human recombinant adrenergic alpha1A receptor. On the technique in general: Displacement assays read how much labelled ligand stays bound in the presence of the test substance.

The target of experiment [2] is D(2) dopamine receptor (Homo sapiens, UniProt P14416). The experiment in a line: Displacement of [125I]spiperone from human recombinant dopamine D2 receptor.
Sequence of D(2) dopamine receptor (P14416 whole entry): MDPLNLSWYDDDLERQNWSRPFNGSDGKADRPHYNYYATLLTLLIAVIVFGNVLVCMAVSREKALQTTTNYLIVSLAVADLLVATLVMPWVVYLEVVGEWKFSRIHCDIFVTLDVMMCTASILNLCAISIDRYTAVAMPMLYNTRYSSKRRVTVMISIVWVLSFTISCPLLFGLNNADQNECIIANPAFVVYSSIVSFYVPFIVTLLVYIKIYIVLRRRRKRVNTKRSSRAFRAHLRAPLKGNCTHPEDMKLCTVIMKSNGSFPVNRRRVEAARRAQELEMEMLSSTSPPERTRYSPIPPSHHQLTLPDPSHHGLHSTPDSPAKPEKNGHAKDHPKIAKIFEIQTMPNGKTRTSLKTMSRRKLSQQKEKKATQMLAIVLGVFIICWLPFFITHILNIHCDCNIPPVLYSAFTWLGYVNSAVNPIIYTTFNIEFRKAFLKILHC
Experiment [3] addresses T2, Alpha-1B adrenergic receptor (Homo sapiens, UniProt P35368).
T2 sequence (P35368 whole entry): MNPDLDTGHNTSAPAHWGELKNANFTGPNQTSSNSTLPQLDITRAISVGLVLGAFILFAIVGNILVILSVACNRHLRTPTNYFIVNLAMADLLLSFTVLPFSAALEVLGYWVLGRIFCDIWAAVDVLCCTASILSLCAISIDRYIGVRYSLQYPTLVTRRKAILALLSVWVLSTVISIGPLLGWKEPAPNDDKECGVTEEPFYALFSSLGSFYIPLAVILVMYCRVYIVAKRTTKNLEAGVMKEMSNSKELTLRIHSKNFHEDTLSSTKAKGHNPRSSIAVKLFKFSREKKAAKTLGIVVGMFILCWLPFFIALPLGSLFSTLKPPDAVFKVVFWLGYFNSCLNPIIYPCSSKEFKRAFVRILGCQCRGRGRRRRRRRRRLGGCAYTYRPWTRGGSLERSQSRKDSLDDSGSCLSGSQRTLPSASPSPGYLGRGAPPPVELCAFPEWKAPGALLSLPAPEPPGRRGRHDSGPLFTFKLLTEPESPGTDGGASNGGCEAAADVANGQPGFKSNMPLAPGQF
Put plainly: Displacement of [125I]HEAT from human recombinant adrenergic Alpha-1B receptor.

The species entered for experiment [4] is Homo sapiens. Put plainly: Selectivity for human alpha1A receptor over human Alpha-1D receptor.

A word on the Ki: it is the equilibrium dissociation constant of an inhibitor or competing ligand from its target. Consider `CC(C)Oc1ccccc1N1CCN(C2CCC(NC(=O)Nc3ccc(F)c(F)c3)CC2)CC1` (cis isomer), for which the Ki in experiment [1] was 51 nM; in experiment [2], 127 nM; in experiment [3], 963 nM.

Regarding `CC(C)Oc1ccccc1N1CCN(C2CCC(NC(=O)Nc3cc(F)ccc3F)CC2)CC1` (cis isomer), the Ki in experiment [1] was 26 nM; in experiment [2], 199 nM; in experiment [3], 259 nM.

Take `CC(C)Oc1ccccc1N1CCN(C2CCC(NC(=O)Nc3ccccc3Cl)CC2)CC1` (cis isomer): the Ki in experiment [1] is 48 nM; in experiment [2], 878 nM; in experiment [3], 373 nM.

Turning to `COc1ccc(Cl)cc1NC(=O)NC1CCC(N2CCN(c3ccccc3OC(C)C)CC2)CC1` (cis isomer), the values for the Ki in experiment [1] and in experiment [2] were 101 nM and 99 nM, respectively.

`CC(C)Oc1ccccc1N1CCN(C2CCC(NC(=O)Nc3ccc(F)cc3F)CC2)CC1` (cis isomer): the Ki in experiment [1] was 14 nM; in experiment [2] it was 35.5 nM; in experiment [3], 475 nM.

For `CC(C)Oc1ccccc1N1CCN(C2CCC(NC(=O)Nc3c(Cl)cc(Cl)cc3Cl)CC2)CC1` (stereo in doubt), the inhibition constant (Ki) amounted to 51 nM in experiment [1], 103 nM in experiment [2] and 483 nM in experiment [3].

Turning to `CC(C)Oc1ccccc1N1CCN(C2CCC(NC(=O)Nc3ccc(F)c(F)c3)CC2)CC1` (stereo in doubt), the Ki in experiment [1] worked out at 3.6 nM; in experiment [2] it was 54 nM; in experiment [3] it was 60 nM.

Turning to `CC(C)Oc1ccccc1N1CCN(C2CCC(NC(=O)Nc3cc(F)ccc3F)CC2)CC1` (stereo in doubt) [listing 1 of 2 here], the Ki in experiment [1] amounted to 1.7 nM; in experiment [2], 0.46 nM; in experiment [3] it was 36.4 nM.

With `CC(C)Oc1ccccc1N1CCN(C2CCC(NC(=O)Nc3ccccc3Cl)CC2)CC1` (stereo in doubt) [listing 1 of 2 here], the results for the Ki in experiment [1], in experiment [2] and in experiment [3] were 11 nM, 33 nM and 39 nM, respectively.

On to `CC(C)Oc1ccccc1N1CCN(C2CCC(NC(=O)Nc3cc(F)ccc3F)CC2)CC1` (stereo in doubt) [listing 2 of 2 here], for which the Ratio Ki in experiment [4] worked out at 4.

Take `CC(C)Oc1ccccc1N1CCN(C2CCC(NC(=O)Nc3ccccc3Cl)CC2)CC1` (stereo in doubt) [listing 2 of 2 here]: the Ratio Ki in experiment [4] turned out to be 4.

Consider `CC(C)Oc1ccccc1N1CCN(C2CCC(NC(=O)NCc3cccc(F)c3)CC2)CC1` (stereo in doubt; cis), for which the Ki stood at 82 nM in experiment [1], 183 nM in experiment [2] and 706 nM in experiment [3].

For `CC(C)Oc1ccccc1N1CCN(C2CCC(NC(=O)Nc3c(Cl)cccc3Cl)CC2)CC1` (stereo in doubt; cis), the Ki in experiment [1] came out at 33 nM; in experiment [2] it was 55 nM.

With `COc1ccc(NC(=O)NC2CCC(N3CCN(c4ccccc4OC(C)C)CC3)CC2)c(OC)c1` (stereo in doubt; cis), the Ki in experiment [1] is 110 nM; in experiment [2] it was 288 nM.

For the compound `CC(C)Oc1ccccc1N1CCN(C2CCC(NC(=O)Nc3cccc(Cl)c3)CC2)CC1` (stereo in doubt; cis), the Ki in experiment [1] was 22 nM; in experiment [2], 108 nM.

For `CC(C)Oc1ccccc1N1CCN(C2CCC(NC(=O)Nc3c(F)cccc3F)CC2)CC1` (stereo in doubt; cis), the Ki is 52 nM in experiment [1], 22 nM in experiment [2] and 299 nM in experiment [3].

For `COc1ccccc1NC(=O)NC1CCC(N2CCN(c3ccccc3OC(C)C)CC2)CC1` (stereo in doubt; cis), the Ki in experiment [1] turned out to be 155 nM; in experiment [2] it was 390 nM; in experiment [3], 223 nM.

In the case of `CC(C)Oc1ccccc1N1CCN(C2CCC(NC(=O)NCc3cccc(F)c3)CC2)CC1` (stereo in doubt; trans) [listing 1 of 2 here], the Ki amounted to 11 nM in experiment [1], 120 nM in experiment [2] and 69 nM in experiment [3].

`CC(C)Oc1ccccc1N1CCN(C2CCC(NC(=O)Nc3c(Cl)cccc3Cl)CC2)CC1` (stereo in doubt; trans): the Ki in experiment [1] came to 6.2 nM; in experiment [2], 4.7 nM.

As to `COc1ccc(NC(=O)NC2CCC(N3CCN(c4ccccc4OC(C)C)CC3)CC2)c(OC)c1` (stereo in doubt; trans), the Ki in experiment [1] turned out to be 74 nM; in experiment [2] it was 892 nM.

For `CC(C)Oc1ccccc1N1CCN(C2CCC(NC(=O)Nc3cccc(Cl)c3)CC2)CC1` (stereo in doubt; trans), the Ki in experiment [1] came to 5.1 nM; in experiment [2], 84 nM.

Consider `CC(C)Oc1ccccc1N1CCN(C2CCC(NC(=O)Nc3c(F)cccc3F)CC2)CC1` (stereo in doubt; trans), for which the Ki in experiment [1] worked out at 5.3 nM; in experiment [2], 2.4 nM; in experiment [3], 36 nM.

Take `COc1ccccc1NC(=O)NC1CCC(N2CCN(c3ccccc3OC(C)C)CC2)CC1` (stereo in doubt; trans): the inhibition constant (Ki) in experiment [1] was 38 nM; in experiment [2], 921 nM; in experiment [3], 107 nM.

`CC(C)Oc1ccccc1N1CCN(C2CCC(NC(=O)NCc3cccc(F)c3)CC2)CC1` (stereo in doubt; trans) [listing 2 of 2 here]: the Ratio Ki in experiment [4] turned out to be 4.

As for `CC(C)Oc1ccccc1N1CCN(C2CCC(NC(=O)Nc3c(Cl)cc(Cl)cc3Cl)CC2)CC1` (trans isomer) [listing 1 of 2 here], the Ki in experiment [1] turned out to be 6.5 nM; in experiment [2] it was 6.5 nM; in experiment [3], 112 nM.

For the compound `COc1ccc(Cl)cc1NC(=O)NC1CCC(N2CCN(c3ccccc3OC(C)C)CC2)CC1` (trans isomer), the figures for the Ki in experiment [1] and in experiment [2] were 34 nM and 1.2 nM, respectively.

As to `CC(C)Oc1ccccc1N1CCN(C2CCC(NC(=O)Nc3ccc(F)cc3F)CC2)CC1` (trans isomer), the inhibitory constant (Ki) in experiment [1] was determined as 3.1 nM; in experiment [2] it was 0.69 nM; in experiment [3], 76 nM.

On to `CC(C)Oc1ccccc1N1CCN(C2CCC(NC(=O)Nc3c(Cl)cc(Cl)cc3Cl)CC2)CC1` (trans isomer) [listing 2 of 2 here], for which, in experiment [4], the Ratio Ki is 4.
